# In ChEMBL document CHEMBL1201862, “PubChem BioAssay data set” (2004):
# The source made the active and inactive calls.
# Experiments:
# [1] = target: T1, Corticotropin-releasing factor receptor 2/Corticotropin-releasing factor-binding protein (Homo sapiens, UniProt P24387+Q13324); test: Dose Response confirmation of uHTS hits for small molecule antagonists of the CRF-binding protein and CRF-R2 receptor complex.; format: functional; conditions: read-out: IC50_Mean
# T1 sequence (Q13324 whole entry): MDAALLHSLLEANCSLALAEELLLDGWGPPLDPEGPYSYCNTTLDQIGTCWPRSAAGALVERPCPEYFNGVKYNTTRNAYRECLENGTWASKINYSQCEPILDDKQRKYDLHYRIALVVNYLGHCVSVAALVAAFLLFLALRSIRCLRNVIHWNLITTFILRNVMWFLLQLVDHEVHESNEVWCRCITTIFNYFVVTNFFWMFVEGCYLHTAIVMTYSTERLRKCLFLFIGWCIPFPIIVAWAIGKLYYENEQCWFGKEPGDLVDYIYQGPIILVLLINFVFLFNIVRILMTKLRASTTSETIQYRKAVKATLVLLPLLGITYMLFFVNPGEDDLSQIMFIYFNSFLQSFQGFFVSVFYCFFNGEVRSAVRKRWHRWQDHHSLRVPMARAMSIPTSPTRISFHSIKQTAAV
# T1 sequence (P24387 whole entry): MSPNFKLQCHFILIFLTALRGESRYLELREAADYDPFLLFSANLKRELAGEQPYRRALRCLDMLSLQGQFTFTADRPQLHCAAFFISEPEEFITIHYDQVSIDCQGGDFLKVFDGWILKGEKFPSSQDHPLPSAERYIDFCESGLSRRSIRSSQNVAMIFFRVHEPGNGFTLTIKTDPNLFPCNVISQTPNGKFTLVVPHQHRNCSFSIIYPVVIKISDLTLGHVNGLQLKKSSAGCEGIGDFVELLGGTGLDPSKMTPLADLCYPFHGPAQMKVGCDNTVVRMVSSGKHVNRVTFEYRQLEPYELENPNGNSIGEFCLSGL
# [2] = CRF-BP/CRF-R2 complex antagonists, dose response, cell-based, uHTS hits, 384-well (AID 651639); format: functional, Homo sapiens; conditions: read-out: IC50_Mean
# [3] = target: T1, Corticotropin-releasing factor receptor 2/Corticotropin-releasing factor-binding protein; test: activators of CRF receptor 2 with binding protein – uHTS hits, confirmation (AID 602473); format: functional; conditions: read-out: EC50_Mean
# [4] = target: T2, Short transient receptor potential channel 4 (Mus musculus, UniProt Q9QUQ5); test: mouse TRPC4 channel inhibitors, dose response, cell-based, HEK293 TRPC4/mu-opioid, Fluo-4 calcium (AID 434942); format: functional;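 also: potency of inhibitors blocking the TRPC4 calcium response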
# T2 sequence (Q9QUQ5 whole entry): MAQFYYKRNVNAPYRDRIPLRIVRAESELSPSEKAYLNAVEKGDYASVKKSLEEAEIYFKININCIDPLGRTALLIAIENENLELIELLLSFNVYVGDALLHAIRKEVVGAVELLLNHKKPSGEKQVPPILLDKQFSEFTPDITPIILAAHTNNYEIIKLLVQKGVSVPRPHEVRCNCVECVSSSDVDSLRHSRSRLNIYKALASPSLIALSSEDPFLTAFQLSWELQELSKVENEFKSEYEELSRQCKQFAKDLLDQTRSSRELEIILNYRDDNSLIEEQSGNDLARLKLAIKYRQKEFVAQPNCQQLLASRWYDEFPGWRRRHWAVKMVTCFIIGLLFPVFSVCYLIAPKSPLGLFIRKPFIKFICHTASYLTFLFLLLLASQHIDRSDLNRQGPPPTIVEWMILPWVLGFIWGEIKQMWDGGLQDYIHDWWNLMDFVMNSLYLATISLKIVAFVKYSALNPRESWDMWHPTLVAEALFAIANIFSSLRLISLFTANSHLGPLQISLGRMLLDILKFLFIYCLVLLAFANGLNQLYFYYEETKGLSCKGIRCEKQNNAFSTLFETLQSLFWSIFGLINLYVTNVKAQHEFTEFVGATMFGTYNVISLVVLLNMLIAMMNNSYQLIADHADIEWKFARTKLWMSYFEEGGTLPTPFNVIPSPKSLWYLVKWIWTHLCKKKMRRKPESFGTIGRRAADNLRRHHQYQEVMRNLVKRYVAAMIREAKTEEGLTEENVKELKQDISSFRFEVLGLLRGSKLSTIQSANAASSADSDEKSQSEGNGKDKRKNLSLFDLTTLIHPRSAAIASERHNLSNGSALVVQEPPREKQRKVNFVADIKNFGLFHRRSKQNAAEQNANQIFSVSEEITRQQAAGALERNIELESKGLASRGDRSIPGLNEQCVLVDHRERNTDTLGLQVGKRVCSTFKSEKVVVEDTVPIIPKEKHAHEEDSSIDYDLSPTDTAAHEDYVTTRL
# [5] = target: T3, Replicative DNA helicase DnaB (Mycobacterium tuberculosis, UniProt P9WMR3); test: DnaB intein splicing inhibitors, dose response, biochemical, cell-free fluorescence (AID 449749); format: functional
# T3 sequence (P9WMR3 whole entry): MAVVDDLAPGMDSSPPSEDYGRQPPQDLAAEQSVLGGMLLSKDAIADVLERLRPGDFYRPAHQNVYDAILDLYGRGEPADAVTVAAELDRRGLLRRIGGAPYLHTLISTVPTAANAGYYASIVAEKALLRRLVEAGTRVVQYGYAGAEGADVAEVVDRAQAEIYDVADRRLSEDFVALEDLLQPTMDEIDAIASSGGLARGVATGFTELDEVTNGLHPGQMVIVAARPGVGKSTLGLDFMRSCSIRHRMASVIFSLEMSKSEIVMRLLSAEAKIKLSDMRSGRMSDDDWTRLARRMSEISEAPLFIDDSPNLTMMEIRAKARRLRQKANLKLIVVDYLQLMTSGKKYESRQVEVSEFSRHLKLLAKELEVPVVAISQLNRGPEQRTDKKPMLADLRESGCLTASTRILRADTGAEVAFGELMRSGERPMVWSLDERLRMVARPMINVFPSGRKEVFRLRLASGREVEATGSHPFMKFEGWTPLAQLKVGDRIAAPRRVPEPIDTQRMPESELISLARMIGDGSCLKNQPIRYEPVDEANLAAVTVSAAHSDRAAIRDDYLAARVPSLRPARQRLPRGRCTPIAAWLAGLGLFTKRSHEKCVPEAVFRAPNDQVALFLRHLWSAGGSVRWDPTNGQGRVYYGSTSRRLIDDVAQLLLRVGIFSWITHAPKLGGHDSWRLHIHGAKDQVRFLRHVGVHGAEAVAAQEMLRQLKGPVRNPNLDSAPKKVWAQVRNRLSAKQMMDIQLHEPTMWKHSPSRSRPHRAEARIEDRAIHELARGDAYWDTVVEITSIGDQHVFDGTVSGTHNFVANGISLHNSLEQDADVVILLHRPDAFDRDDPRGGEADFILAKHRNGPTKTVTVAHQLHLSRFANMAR
# [6] = target: DNA dC->dU-editing enzyme APOBEC-3G (Homo sapiens, UniProt Q9HC16); test: Dose Response confirmation of small molecule APOBEC3G DNA Deaminase Inhibitors via a fluorescence-based single-stranded DNA deaminase assay. [Related pubchem assays (depositor defined):AID493012, AID493028]; format: functional
# [7] = target: T2, Short transient receptor potential channel 4; test: mouse TRPC4 channel activators, dose response, cell-based, HEK293 TRPC4/mu-opioid, Fluo-4 calcium (AID 434937); format: functional
# Protein RecA = target: T4, Protein RecA (Mycobacterium tuberculosis, UniProt P9WHJ3); test: Fluorescence Cell-Free Homogeneous Dose Retest to Identify Inhibitors of RecA-Intein Splicing Activity. [Related pubchem assays (depositor defined):AID2097, AID2223, AID489010, AID492950]; format: functional
# T4 sequence (P9WHJ3 whole entry): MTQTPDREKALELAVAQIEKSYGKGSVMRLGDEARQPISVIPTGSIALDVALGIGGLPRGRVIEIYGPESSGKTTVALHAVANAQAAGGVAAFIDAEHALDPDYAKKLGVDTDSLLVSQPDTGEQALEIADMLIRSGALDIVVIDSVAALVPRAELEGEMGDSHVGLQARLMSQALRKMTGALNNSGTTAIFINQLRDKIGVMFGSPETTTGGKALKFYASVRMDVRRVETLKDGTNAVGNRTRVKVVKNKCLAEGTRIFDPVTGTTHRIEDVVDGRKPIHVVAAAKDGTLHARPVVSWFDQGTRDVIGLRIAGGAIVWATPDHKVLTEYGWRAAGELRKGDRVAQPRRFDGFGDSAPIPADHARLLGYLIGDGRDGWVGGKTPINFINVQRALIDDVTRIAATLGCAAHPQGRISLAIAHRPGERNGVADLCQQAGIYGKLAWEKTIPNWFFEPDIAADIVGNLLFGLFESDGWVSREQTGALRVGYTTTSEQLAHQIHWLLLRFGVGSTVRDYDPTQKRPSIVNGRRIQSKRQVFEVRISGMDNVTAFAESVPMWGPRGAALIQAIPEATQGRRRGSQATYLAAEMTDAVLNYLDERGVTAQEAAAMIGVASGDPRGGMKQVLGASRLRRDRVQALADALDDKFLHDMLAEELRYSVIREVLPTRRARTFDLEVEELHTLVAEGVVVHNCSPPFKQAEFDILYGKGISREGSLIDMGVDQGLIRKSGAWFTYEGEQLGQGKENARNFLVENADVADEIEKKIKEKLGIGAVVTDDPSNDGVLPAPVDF
# [8] = target: DNA dC->dU-editing enzyme APOBEC-3A (Homo sapiens, UniProt P31941); test: APOBEC3A DNA deaminase inhibitors, dose response, biochemical (AID 504722); format: functional
# SUMO-activating enzyme = SUMO-activating enzyme (Homo sapiens, UniProt Q9UBT2); test: inhibitors of in vitro SUMOylation cascade, primary screen, biochemical, HTRF, uHTS (AID 2006); format: protein-complex assay
# [9] = target: T5, Mannose-6-phosphate isomerase (Homo sapiens, UniProt P34949); test: human PMI inhibitors, high substrate, primary screen, biochemical, fluorescence intensity, high mannose 6-phosphate (AID 1220)
# T5 sequence (P34949 whole entry): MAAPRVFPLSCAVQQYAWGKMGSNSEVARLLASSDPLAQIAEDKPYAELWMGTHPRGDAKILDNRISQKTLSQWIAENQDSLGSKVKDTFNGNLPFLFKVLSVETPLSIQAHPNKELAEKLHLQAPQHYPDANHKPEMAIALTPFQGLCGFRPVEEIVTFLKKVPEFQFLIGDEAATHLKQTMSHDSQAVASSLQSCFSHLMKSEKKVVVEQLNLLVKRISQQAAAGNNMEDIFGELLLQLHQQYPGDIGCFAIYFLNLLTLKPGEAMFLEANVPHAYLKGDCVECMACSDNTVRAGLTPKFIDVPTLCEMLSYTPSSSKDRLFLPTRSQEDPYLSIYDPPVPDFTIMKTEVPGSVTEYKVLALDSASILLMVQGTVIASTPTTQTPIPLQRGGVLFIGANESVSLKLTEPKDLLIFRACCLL
# [10] = target: T6, Rac GTPase-activating protein 1 (Homo sapiens, UniProt Q9H0H5); test: MgcRacGAP GTPase-activating activity inhibitors, confirmation, biochemical, ADP Hunter fluorescence, primary and confirmatory (AID 624330); format: functional
# T6 sequence (Q9H0H5 whole entry): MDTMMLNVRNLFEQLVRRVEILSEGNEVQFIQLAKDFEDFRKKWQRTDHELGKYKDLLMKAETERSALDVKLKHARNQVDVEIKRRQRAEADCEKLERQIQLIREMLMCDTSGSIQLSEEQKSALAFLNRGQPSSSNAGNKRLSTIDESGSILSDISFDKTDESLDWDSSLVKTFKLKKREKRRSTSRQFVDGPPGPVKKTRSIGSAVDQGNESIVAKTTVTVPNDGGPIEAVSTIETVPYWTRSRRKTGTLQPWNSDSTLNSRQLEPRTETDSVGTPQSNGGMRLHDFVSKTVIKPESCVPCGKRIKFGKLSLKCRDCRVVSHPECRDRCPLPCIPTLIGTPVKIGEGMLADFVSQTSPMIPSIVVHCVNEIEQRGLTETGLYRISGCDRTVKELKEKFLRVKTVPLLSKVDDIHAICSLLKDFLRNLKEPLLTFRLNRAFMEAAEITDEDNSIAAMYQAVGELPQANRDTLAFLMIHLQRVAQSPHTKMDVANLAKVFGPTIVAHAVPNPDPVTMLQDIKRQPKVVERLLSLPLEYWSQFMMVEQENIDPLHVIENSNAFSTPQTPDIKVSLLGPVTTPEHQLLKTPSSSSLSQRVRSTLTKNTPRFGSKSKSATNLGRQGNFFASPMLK
# Sequence of DNA dC->dU-editing enzyme APOBEC-3G (Q9HC16 whole entry): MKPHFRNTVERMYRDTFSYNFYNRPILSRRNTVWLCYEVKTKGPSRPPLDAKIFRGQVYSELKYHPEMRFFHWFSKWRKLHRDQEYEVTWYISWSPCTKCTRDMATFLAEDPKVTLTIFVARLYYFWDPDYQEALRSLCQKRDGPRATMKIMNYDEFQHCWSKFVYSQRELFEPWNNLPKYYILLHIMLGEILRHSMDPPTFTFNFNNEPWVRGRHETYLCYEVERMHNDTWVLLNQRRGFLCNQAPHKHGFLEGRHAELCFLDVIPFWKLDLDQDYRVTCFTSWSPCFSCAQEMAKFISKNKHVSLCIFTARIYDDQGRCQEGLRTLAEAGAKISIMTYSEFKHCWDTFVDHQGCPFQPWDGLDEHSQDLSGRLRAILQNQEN
# Sequence of SUMO-activating enzyme (Q9UBE0 whole entry): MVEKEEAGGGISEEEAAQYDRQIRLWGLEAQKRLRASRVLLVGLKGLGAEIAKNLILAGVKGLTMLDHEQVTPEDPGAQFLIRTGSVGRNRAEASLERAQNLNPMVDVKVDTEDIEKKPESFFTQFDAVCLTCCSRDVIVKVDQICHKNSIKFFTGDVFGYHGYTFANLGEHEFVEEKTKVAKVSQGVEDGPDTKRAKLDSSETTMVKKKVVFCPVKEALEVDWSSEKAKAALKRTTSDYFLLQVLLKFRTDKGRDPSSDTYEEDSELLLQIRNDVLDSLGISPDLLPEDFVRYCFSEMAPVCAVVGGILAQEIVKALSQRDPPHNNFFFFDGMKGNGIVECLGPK
# Sequence of SUMO-activating enzyme (Q9UBT2 whole entry): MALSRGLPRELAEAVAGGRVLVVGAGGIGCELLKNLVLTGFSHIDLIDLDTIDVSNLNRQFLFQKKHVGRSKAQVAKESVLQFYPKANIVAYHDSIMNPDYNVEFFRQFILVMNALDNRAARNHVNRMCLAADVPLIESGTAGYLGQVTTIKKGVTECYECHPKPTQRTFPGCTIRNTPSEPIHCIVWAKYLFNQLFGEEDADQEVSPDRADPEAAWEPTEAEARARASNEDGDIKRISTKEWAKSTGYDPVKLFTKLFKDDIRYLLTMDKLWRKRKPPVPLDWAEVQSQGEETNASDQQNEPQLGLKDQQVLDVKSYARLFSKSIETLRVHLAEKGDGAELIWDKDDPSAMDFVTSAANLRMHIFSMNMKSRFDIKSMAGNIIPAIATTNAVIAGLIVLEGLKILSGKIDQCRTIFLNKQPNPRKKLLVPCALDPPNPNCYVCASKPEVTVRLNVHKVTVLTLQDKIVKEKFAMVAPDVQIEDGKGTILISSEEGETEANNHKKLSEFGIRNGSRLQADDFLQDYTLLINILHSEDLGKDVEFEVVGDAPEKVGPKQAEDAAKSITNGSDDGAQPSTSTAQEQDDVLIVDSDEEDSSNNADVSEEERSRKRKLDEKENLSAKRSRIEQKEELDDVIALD
# Sequence of DNA dC->dU-editing enzyme APOBEC-3A (P31941 whole entry): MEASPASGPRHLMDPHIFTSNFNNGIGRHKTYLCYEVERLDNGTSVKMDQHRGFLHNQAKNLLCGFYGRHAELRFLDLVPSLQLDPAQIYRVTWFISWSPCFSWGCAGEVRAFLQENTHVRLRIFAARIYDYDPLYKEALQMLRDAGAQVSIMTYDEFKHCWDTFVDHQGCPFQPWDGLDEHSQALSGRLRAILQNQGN
smiles,measurement,setting,value
COC(=O)CSc1nn(-c2ccc(F)cc2)c(=S)s1,IC50,[1],4.86 µM (active)
same,IC50,[2],> 20 µM (inactive)
same,EC50,[3],> 53 µM (inactive)
same,EC50,[4],6.68 µM (active)
Cc1ccccc1C(=O)NNC(=S)NC(=O)COc1ccccc1,AC50,[5],29 µM (active)
same,IC50,[6],12.7 µM (active)
same,EC50,[7],5.31 µM (active)
same,EC50,Protein RecA,17.7 µM (active)
same,IC50,[8],> 100 µM (inactive)
COc1ccc2c(c1)-c1nc(/N=C/c3cccc(OC)c3O)sc1CC2,IC50,SUMO-activating enzyme,> 100 µM (inactive)
same,IC50,[9],> 50 µM (not active)
same,IC50,[10],23.7 µM (active)
CCOC(=O)C1(Cc2ccccc2)CCN(CC2CC=CCC2)CC1 (stereo not drawn),EC50,[4],13.3 µM (active)
